This is an account of results in patent US7816408B2, “Calcium receptor active compounds” (NPS Pharmaceuticals, Inc., priority 2002, dated 2010).

pEC50: −log10 of the molar value.

One experiment addresses T1, human calcium receptor (Homo sapiens, UniProt P41180).
T1 construct: expressed in transfected cells; host or cells: HEK293
T1 sequence (P41180 20-1078): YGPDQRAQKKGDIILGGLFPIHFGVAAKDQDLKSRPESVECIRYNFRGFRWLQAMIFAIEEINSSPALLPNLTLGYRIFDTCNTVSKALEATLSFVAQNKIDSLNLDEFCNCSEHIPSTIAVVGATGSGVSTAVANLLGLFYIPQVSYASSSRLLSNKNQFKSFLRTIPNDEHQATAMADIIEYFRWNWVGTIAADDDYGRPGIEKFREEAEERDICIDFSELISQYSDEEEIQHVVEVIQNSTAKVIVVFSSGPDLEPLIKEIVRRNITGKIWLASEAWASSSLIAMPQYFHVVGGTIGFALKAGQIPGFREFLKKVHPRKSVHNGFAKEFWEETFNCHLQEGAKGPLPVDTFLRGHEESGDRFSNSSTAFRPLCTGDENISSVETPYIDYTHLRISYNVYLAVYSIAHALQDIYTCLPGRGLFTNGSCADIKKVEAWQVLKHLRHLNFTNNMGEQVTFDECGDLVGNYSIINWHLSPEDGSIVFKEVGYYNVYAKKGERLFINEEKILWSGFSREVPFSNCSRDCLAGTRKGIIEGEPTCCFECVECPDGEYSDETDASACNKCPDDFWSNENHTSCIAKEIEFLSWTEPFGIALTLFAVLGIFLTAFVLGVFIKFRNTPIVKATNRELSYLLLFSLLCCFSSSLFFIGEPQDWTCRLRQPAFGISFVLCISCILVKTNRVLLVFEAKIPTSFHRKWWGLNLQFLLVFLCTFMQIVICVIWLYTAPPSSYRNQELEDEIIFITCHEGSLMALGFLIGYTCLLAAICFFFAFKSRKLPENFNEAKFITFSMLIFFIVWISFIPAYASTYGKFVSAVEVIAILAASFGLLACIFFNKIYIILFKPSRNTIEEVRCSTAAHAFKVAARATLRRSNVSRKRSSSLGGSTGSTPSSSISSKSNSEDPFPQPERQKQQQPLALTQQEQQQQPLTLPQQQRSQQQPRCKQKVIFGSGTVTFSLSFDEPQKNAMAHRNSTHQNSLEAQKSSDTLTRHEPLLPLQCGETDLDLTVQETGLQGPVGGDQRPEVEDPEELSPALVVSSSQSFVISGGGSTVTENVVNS
Kind of experiment: Activity on calcium receptors: fluo-3 fluorescence in HEK293 cells transfected with human calcium receptor gene. The settings on record: HEK293 cells transfected with plasmid pHuPCaR4.0 (human calcium receptor gene), loaded with fluo-3; 1 mM CaCl2, 1 mM MgCl2. The class given is cell-based. The procedure: The activities of the compounds of the present invention on calcium receptors were measured. The measurement was performed in accordance with the method described in Example 4 of Nemeth et al., PCT/US95/13704 (International Publication No. WO96/12697). In brief, HEK293 cells were transfected with a plasmid pHuPCaR4.0 containing a human calcium receptor gene and loaded with fluo-3. The loading was carried out by incubating the cells at 37° C. for 1 hour in Dulbecco's modified Eagle's medium which contained about 5 μM of fluo-3/AM and had been buffered with 20 mM HEPES. Next, the cells were rinsed with Hank's balanced salt solution which contained 1 mM CaCl2 and 1 mM MgCl2 and had been buffered with 20 mM HEPES. Then each test compound was added to the cells and the fluorescence was measured with the use of an excitation wavelength of 485 nm and an emission wavelength of 540 nm.

The subject of another experiment is normal male SD rats. The experiment can be described thus: Plasma Ca^2+ level of rats after single oral administration. Format: in vivo. The settings on record: rat, mean of six animals, vehicle 10% cyclodextrin (** 1% sodium-CMC). On the procedure:
The compound of the present invention was administered to rats so as to examine the effects of the compound on the plasma calcium ion level and serum PTH level. The test was performed by orally administering single dose of the compound of the invention or a control compound to normal male SD rats with six animals in each group.
To the group 1 was administered as a control a 10% cyclodextrin aqueous solution in a dose of 2.5 ml/kg. To the group 2 was administered as a reference (R)-N-(3-(2-chlorophenyl)propyl)-1-(3-methoxyphenyl)ethylamine (KRN568) dissolved in a 10% cyclodextrin aqueous solution in a dose of 30 μmol/kg. To the group 3 was administered the compound of the present invention dissolved in a 10% cyclodextrin aqueous solution in a dose of 30 μmol/kg, provided that 1% sodium-CMC aqueous solution was used in place of 10% cyclodextrin aqueous solution for the compounds marked with ** in Table 2.
Blood of each rat was collected from the tail tip before the administration and 30 minutes and 1, 2, 4, 8 and 24 hours thereafter (or at the time indicated in Table 2), and the plasma Ca^2+ level and serum PTH level were measured. The data of the serum PTH level were statistically processed by the multiple comparison analysis in accordance with Steel's calibration by using the group 1 as the control.

As to `CC(NCCSc1cc(Cl)ccc1Cl)c1cccc(OCCCCCCCl)c1` (racemic) [Compound K-2260, (±)-N-(1-(3-(6-chlorohexyloxy)phenyl)ethyl)-2-(2′,5′-dichlorophenylthio)ethylamine], the pEC50 at human calcium receptor was 7.02.
For the compound `Cc1ccc(COc2cccc(C(C)NCCSc3cc(Cl)ccc3Cl)c2)cc1` (racemic) [Compound K-2268, (±)-N-(1-(3-(4-methylbenzyloxy)phenyl)ethyl)-2-(2′,5′-dichlorophenylthio)ethylamine], the pEC50 on human calcium receptor is 7.05.
Still for that read-out and setting: under `COc1cccc(C(C)NCCCCOc2ccccc2Cl)c1` (stereo not drawn) [Compound 2] stands 4.89; under `COc1cccc(C(C)NCCCCCCOc2ccccc2Cl)c1` (stereo not drawn) [Compound 6], 5.12.
For `COc1cccc(C(C)NCCCCOc2cccc(Cl)c2)c1` (stereo not drawn) [Compound 8], the pEC50 on human calcium receptor was 5.72.
For `COc1cccc(C(C)NCCCCCOc2cccc(Cl)c2)c1` (stereo not drawn) [Compound 10], the pEC50 at human calcium receptor is 6.00.
The same measure, in the same setting: under `COc1cccc(C(C)NCCCCCCOc2cccc(Cl)c2)c1` (stereo not drawn) [Compound 12] stands 5.92.
`COc1cccc([C@@H](C)NCCCCOc2ccc(Cl)cc2)c1` [Compound 14]: the pEC50 at human calcium receptor is 5.54.
On the same count and under the same terms, under `COc1cccc(C(C)NCCCCCOc2ccc(Cl)cc2)c1` (stereo not drawn) [Compound 16] stands 6.26; under `COc1cccc(C(C)NCCCCCCOc2ccc(Cl)cc2)c1` (stereo not drawn) [Compound 18], 6.12; under `COc1cccc(C(C)NCCCSc2ccccc2Cl)c1` (stereo not drawn) [Compound 20], 5.49.
In the case of `COc1cccc(C(C)NCCCCCSc2ccccc2Cl)c1` (stereo not drawn) [Compound 24], the pEC50 on human calcium receptor was 6.36.
In the case of `COc1cccc(C(C)NCCCCCCSc2ccccc2Cl)c1` (stereo not drawn) [Compound 26], the pEC50 at human calcium receptor is 5.74.
On the same count and under the same terms, under `COc1cccc(C(C)NCCCSc2ccc(Cl)cc2)c1` (stereo not drawn) [Compound 28] stands 5.80.
For `COc1cccc(C(C)NCCCCSc2nc3ccccc3s2)c1` (stereo not drawn) [Compound 36], the pEC50 at human calcium receptor was 6.68.
As for `COc1cccc(C(C)NCCCCCSc2nc3ccccc3s2)c1` (stereo not drawn) [Compound 38], the pEC50 on human calcium receptor is 6.01.
In the case of `COc1cccc([C@@H](C)NCCCCCCSc2nc3ccccc3s2)c1` [Compound 40], the pEC50 at human calcium receptor is 5.29.
On to `COc1cccc(C(C)NCCCOC2c3ccccc3-c3ccccc32)c1` (stereo not drawn) [Compound 56], for which the pEC50 at human calcium receptor was 6.55.
On to `COc1cccc(C(C)NCCCOc2ccc3c(c2)Cc2ccccc2-3)c1` (stereo not drawn) [Compound 59], for which the pEC50 at human calcium receptor was 5.99.
Same read-out and setting: the figure for `COc1cccc(C(C)NCCCOc2ccccc2Cl)c1` (stereo not drawn) [Compound 62] is 6.29; for `COc1cccc(C(C)NCCCOc2cccc(Cl)c2)c1` (stereo not drawn) [Compound 65] it is 6.28; for `COc1cccc(C(C)NCCCOc2ccc(Cl)cc2)c1` (stereo not drawn) [Compound 68] it is 6.19.
Consider `COc1cccc(C(C)NCCCOc2ccc3ccccc3c2)c1` (stereo not drawn) [Compound 74], for which the pEC50 at human calcium receptor was 5.14.
Take `COc1cccc(C(C)NCCCSc2ccc3ccccc3c2)c1` (stereo not drawn) [Compound 77]: the pEC50 on human calcium receptor is 6.00.
For `COc1cccc(C(C)NCCCOc2ccc3[nH]ccc3c2)c1` (stereo not drawn) [Compound 80], the pEC50 at human calcium receptor is 6.33.
In the case of `COc1cccc([C@@H](C)NCCCOc2ccc(-c3ccccc3)cc2)c1` [Compound 83], on human calcium receptor, the pEC50 is 6.00.
With `COc1cccc(C(C)NCCCNC(C)c2cccc(OC)c2)c1` (stereo not drawn) [Compound 88], the pEC50 at human calcium receptor is 5.49.
Still for that read-out and setting: the figure for `CC(NCCCNC(C)c1cccc2ccccc12)c1cccc2ccccc12` (stereo not drawn) [Compound 93] is 6.96.
Consider `CC(NCCCOc1ccc2oc(-c3ccccc3)cc(=O)c2c1)c1cccc2ccccc12` (stereo not drawn) [Compound 103], for which the pEC50 at human calcium receptor was 6.52.
With `COc1cccc([C@@H](C)NCCCc2ccccc2Cl)c1` [KRN568, (R)-N-(3-(2-chlorophenyl)propyl)-1-(3-methoxyphenyl)ethylamine, reference compound], in the experiment with normal male SD rats (1 hr after single oral dose 30 μmol/kg), the “Plasma Ca^2+ (mmol/l) 1 hr” value stood at 1.305 mmol/L. Further, the “Plasma Ca^2+ (mmol/l) 2 hr” value in the experiment on normal male SD rats (2 hr after single oral dose 30 μmol/kg) worked out at 1.237 mmol/L. In addition, in the experiment with normal male SD rats (4 hr after single oral dose 30 μmol/kg), the “Plasma Ca^2+ (mmol/l) 4 hr” value was 1.290 mmol/L. Also, the “Plasma Ca^2+ (mmol/l) 8 hr” value in the experiment on normal male SD rats (8 hr after single oral dose 30 μmol/kg) was 1.340 mmol/L.
